{"source": "paper PMC6754293", "about": "(Cell chemical biology, 2019)", "key": {"MET": {"molecular_target": "MET (Homo sapiens, UniProt P08581)", "sequence (P08581 25-1390)": "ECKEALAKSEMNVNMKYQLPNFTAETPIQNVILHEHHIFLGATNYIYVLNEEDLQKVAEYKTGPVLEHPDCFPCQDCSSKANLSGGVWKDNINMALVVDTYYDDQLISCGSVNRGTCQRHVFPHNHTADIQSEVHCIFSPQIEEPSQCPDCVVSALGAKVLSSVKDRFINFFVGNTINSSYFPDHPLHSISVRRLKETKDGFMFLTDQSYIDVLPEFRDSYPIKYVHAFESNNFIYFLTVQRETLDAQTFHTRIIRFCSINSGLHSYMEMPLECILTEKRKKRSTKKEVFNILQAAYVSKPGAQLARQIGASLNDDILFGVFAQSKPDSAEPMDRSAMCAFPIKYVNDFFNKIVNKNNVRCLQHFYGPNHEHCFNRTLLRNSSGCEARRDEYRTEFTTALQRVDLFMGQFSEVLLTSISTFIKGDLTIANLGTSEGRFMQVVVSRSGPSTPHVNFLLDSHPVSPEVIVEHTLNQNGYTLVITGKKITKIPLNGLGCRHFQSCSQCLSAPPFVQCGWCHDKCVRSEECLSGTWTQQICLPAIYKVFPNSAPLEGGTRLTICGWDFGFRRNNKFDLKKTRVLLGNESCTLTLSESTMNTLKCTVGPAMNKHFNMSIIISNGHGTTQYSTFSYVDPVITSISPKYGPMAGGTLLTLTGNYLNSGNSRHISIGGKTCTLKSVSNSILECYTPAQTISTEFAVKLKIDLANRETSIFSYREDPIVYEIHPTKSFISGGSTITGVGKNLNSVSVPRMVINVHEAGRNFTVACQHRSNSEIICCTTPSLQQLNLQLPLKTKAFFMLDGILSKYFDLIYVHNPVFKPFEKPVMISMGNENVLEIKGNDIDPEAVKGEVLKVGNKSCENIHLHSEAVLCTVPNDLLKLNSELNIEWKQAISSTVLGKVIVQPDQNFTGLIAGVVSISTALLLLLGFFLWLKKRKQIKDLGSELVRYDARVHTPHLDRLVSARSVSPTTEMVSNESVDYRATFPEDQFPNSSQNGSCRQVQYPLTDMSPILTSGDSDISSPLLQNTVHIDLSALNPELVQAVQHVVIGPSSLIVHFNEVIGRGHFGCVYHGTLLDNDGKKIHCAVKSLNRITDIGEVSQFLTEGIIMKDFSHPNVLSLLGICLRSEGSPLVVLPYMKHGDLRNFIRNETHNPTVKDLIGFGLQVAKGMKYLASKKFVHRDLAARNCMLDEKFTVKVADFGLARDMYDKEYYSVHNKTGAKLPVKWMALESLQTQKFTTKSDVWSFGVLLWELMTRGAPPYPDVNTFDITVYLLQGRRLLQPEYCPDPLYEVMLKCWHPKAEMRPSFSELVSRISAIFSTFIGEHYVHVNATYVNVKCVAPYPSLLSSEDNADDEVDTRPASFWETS", "test": "pulldowns with H1648 lysate and in vitro MET kinase assays of probes", "type": "biochemical"}, "SRC": {"molecular_target": "SRC (Homo sapiens, UniProt P12931)", "sequence (P12931 whole entry)": "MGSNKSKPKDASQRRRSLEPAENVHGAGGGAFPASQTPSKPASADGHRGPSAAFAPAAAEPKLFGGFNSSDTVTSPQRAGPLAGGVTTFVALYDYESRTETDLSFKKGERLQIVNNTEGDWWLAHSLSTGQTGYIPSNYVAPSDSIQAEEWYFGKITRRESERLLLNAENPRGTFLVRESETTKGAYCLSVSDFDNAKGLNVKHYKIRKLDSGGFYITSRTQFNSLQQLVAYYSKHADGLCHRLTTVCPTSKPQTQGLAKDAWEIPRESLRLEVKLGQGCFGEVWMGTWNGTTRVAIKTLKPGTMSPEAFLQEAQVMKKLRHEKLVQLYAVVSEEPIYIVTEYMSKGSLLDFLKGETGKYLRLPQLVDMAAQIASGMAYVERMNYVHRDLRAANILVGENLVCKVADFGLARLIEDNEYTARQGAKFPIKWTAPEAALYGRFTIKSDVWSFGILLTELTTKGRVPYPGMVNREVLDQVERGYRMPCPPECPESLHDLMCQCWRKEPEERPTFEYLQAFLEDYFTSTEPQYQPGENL", "test": "in vitro kinase assay SRC", "type": "biochemical", "details": "10 μM ATP; compared with cabozantinib"}, "[1]": {"test_system": "pERK at T202/Y204 (substrate sites of MEK1/2)", "test": "Western blot of pERK", "type": "cell-based", "details": "H1155 and A427 cells; 1 hour; 0.1, 0.5 and 1 μM"}, "FAK autophosphorylation": {"test_system": "FAK autophosphorylation", "test": "FAK autophosphorylation immunoblot", "type": "cell-based", "details": "at the concentrations used"}, "H1155 and A427 cells [2]": {"test_system": "H1155 and A427 cells", "type": "cell-based", "details": "0.5 μM and 1 μM, 24 hours (blot), 24 and 48 hours (imaging)"}, "SCLC cell lines": {"test_system": "SCLC cell lines", "test": "viability of SCLC cell lines", "type": "cell-based", "details": "72 hours treatment"}, "H1155 and A427 cells [3]": {"test_system": "H1155 and A427 cells", "test": "cell cycle analysis", "type": "cell-based", "details": "6 hours"}, "A427 cells": {"test_system": "A427 cells", "test": "crystal violet clonogenic assay", "type": "cell-based", "details": "10 days"}, "NSCLC cell lines": {"test_system": "NSCLC cell lines", "test": "viability-based drug screen and dose response", "details": "72 hours treatment; screen at 0.5 μM and 2.5 μM, confirmed in 14 NSCLC cell lines"}, "MEK1": {"molecular_target": "MEK1 (Homo sapiens, UniProt Q02750)", "sequence (Q02750 whole entry)": "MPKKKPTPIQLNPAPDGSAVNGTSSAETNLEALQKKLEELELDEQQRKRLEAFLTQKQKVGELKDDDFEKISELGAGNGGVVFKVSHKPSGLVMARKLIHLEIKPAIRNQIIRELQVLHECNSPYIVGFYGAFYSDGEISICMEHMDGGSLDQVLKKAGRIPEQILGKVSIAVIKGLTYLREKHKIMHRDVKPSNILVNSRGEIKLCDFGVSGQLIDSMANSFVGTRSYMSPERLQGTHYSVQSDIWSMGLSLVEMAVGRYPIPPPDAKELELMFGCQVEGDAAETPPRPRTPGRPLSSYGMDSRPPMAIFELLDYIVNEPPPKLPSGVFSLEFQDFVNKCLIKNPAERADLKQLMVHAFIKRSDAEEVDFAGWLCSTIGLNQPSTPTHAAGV", "test": "in vitro kinase assay MEK1", "type": "biochemical", "details": "10 μM ATP; compared with cabozantinib"}, "[4]": {"test_system": "tyrosine phosphorylated FER in H1155 cells", "test": "pY immunoprecipitation of FER", "type": "cell-based", "details": "3 hours, 1 μM"}, "AURKA": {"molecular_target": "T1, AURKA (Homo sapiens, UniProt O14965)", "T1 sequence (O14965 1-403)": "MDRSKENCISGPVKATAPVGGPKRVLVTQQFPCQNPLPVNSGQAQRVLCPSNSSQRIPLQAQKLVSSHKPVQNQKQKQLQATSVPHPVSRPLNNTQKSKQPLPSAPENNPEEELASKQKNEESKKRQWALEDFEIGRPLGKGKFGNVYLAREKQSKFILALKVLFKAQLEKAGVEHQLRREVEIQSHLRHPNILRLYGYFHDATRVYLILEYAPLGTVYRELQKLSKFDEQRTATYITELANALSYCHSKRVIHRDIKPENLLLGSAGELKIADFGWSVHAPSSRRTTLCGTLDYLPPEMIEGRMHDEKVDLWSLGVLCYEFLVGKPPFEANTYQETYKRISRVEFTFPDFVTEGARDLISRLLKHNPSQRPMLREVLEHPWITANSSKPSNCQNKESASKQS", "test": "in vitro kinase assay AURKA", "type": "biochemical", "details": "10 μM ATP; compared with cabozantinib"}, "FER": {"molecular_target": "FER (Homo sapiens, UniProt P16591)", "sequence (P16591 whole entry)": "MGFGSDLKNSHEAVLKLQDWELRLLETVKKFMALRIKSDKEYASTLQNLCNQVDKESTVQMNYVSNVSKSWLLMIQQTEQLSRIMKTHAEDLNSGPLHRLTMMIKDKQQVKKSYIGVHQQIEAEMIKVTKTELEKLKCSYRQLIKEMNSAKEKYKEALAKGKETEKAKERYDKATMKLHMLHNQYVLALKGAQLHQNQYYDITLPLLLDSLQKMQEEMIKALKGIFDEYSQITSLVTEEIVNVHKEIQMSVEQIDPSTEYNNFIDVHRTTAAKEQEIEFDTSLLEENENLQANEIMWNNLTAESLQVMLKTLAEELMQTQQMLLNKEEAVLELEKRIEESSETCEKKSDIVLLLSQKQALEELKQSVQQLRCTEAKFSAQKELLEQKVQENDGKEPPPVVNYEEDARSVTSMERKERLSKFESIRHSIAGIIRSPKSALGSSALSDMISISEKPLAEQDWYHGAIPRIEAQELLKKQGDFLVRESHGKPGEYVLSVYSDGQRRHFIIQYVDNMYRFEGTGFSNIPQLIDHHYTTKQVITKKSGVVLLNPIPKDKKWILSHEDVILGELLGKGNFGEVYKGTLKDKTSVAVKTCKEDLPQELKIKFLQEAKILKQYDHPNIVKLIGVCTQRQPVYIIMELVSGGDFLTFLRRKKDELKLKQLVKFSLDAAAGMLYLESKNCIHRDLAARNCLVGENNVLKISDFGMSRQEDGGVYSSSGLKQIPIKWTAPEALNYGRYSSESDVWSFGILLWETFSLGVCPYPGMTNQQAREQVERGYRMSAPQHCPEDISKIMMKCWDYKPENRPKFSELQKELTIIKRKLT", "test": "in vitro kinase assay FER", "type": "biochemical", "details": "10 μM ATP; compared with cabozantinib"}, "[5]": {"test_system": "SRC autophosphorylation at Y419 in H1155 cells", "test": "SRC autophosphorylation at Y419", "type": "cell-based", "details": "data not shown"}, "AURKB": {"molecular_target": "AURKB (Homo sapiens, UniProt Q96GD4)", "sequence (Q96GD4 whole entry)": "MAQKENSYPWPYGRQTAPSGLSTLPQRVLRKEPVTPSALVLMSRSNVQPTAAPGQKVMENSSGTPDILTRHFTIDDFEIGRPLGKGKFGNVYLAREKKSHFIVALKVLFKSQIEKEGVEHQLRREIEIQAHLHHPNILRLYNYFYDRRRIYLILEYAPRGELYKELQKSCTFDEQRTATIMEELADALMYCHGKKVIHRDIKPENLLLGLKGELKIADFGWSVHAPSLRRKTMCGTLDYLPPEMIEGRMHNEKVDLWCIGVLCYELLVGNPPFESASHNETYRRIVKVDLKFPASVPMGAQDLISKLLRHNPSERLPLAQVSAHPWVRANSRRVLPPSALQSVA", "test": "in vitro kinase assay AURKB", "type": "biochemical", "details": "10 μM ATP; compared with cabozantinib"}, "[6]": {"test_system": "histone H3 at S10 (downstream target of AURKB)", "test": "Western blot of pH3", "type": "cell-based", "details": "H1155 cells, 6 hours, 0.05, 0.25 and 0.5 μM"}, "MEK2": {"test_system": "MEK2", "details": "read-out: IC50 MEK2; second value of MEK1/2 pair; ref Yamaguchi et al., 2011; cited from earlier work"}, "[7]": {"test_system": "MET autophosphorylation in H1648 cells"}, "H1155 cells": {"test_system": "H1155 cells", "test": "H1155 cell viability with tool compounds alone or combined", "type": "cell-based", "details": "compared to AURKB inhibition"}}}
{"smiles": "COc1cc2c(Oc3ccc(N(C(=O)C4(C(N)=O)CC4)c4ccc(F)cc4)cc3F)ccnc2cc1OCCCN1CCN(CCCN)CC1", "note": "[i-foretinib, N-(4-((7-(3-(4-(3-aminopropyl)piperazin-1-yl)propoxy)-6-methoxyquinolin-4-yl)oxy)-3-fluorophenyl)-N-(4-fluorophenyl)cyclopropane-1,1-dicarboxamide]", "values": [{"measurement": "ability to bind and inhibit MET", "setting": "MET", "result": "retained their ability to bind and inhibit MET"}]}
{"smiles": "COc1cc2c(Oc3ccc(NC(=O)C4(C(=O)Nc5ccc(F)cc5)CC4)cc3F)ccnc2cc1OCCCN1CCOCC1", "note": "[foretinib]", "values": [{"measurement": "SRC inhibition, in vitro kinase assay", "setting": "SRC", "result": "more potently inhibited by foretinib than by cabozantinib"}, {"measurement": "phosphorylation of pERK at T202/Y204", "setting": "[1]", "result": "decreased phosphorylation of pERK"}, {"measurement": "FAK autophosphorylation", "setting": "FAK autophosphorylation", "result": "not affected"}, {"measurement": "induction of apoptosis (PARP1 and caspase 3 cleavage, caspase 3/7)", "setting": "H1155 and A427 cells [2]", "result": "induced apoptosis"}, {"measurement": "effect on viability of SCLC cells", "setting": "SCLC cell lines", "result": "potently inhibited viability of MYC-amplified SCLC cells, but not SCLC cells without MYC amplification"}, {"measurement": "drug-induced cell cycle changes", "setting": "H1155 and A427 cells [3]", "result": "pronounced accumulation of cells in G2 phase"}, {"measurement": "inhibition of A427 cell growth, clonogenic assay", "setting": "A427 cells", "result": "inhibited A427 cell growth"}, {"measurement": "effect on viability of NSCLC cell lines", "setting": "NSCLC cell lines", "result": "much higher cellular activity compared to cabozantinib"}, {"measurement": "MEK1 inhibition, in vitro kinase assay", "setting": "MEK1", "result": "more potently inhibited by foretinib than by cabozantinib"}, {"measurement": "phosphorylation changes of FER (pY immunoprecipitation)", "setting": "[4]", "result": "phosphorylation changes of FER"}, {"measurement": "AURKA inhibition, in vitro kinase assay", "setting": "AURKA", "result": "more potently inhibited by foretinib than by cabozantinib"}, {"measurement": "FER inhibition, in vitro kinase assay", "setting": "FER", "result": "more potently inhibited by foretinib than by cabozantinib"}, {"measurement": "SRC autophosphorylation at Y419", "setting": "[5]", "result": "did not decrease SRC autophosphorylation"}, {"measurement": "AURKB inhibition, in vitro kinase assay", "setting": "AURKB", "result": "more potently inhibited by foretinib than by cabozantinib"}, {"measurement": "phosphorylation of histone H3 at S10", "setting": "[6]", "result": "decreased phosphorylation of histone H3 at S10"}]}
{"smiles": "COc1cc2nccc(Oc3ccc(NC(=O)C4(C(=O)Nc5ccc(F)cc5)CC4)cc3)c2cc1OC", "note": "[cabozantinib]", "values": [{"measurement": "phosphorylation of pERK at T202/Y204", "setting": "[1]", "result": "in contrast to cabozantinib"}, {"measurement": "inhibition of MET autophosphorylation", "setting": "[7]", "result": "inhibited MET autophosphorylation"}, {"measurement": "effect on viability of SCLC cells", "setting": "SCLC cell lines", "result": "in contrast to cabozantinib"}, {"measurement": "inhibition of A427 cell growth, clonogenic assay", "setting": "A427 cells", "result": "in contrast to cabozantinib"}, {"measurement": "effect on viability of NSCLC cell lines", "setting": "NSCLC cell lines", "result": "little to no effects"}]}
{"smiles": "CC1(C)CNc2cc(NC(=O)c3cccnc3NCc3ccncc3)ccc21", "note": "[motesanib]", "values": [{"measurement": "effect on viability of SCLC cells", "setting": "SCLC cell lines", "result": "no effect on SCLC cells"}, {"measurement": "effect on viability of NSCLC cell lines", "setting": "NSCLC cell lines", "result": "little to no effects"}]}
{"smiles": "CNC(=O)c1c(F)cccc1Nc1nc(Nc2cc3c(cc2OC)CCN3C(=O)CN(C)C)nc2[nH]ccc12", "note": "[GSK1838705A]", "values": [{"measurement": "FAK autophosphorylation", "setting": "FAK autophosphorylation", "result": "not affected"}, {"measurement": "phosphorylation changes of FER (pY immunoprecipitation)", "setting": "[4]", "result": "phosphorylation changes of FER"}]}
{"smiles": "OCCn1cc(-c2cnc3nnn(Cc4ccc5ncccc5c4)c3n2)cn1", "note": "[PF-04217903]", "values": [{"measurement": "effect on viability of SCLC cells", "setting": "SCLC cell lines", "result": "no effect on SCLC cells"}, {"measurement": "effect on viability of NSCLC cell lines", "setting": "NSCLC cell lines", "result": "little to no effects"}]}
{"smiles": "COc1cc(Nc2ncc3c(n2)-c2ccc(Cl)cc2C(c2c(F)cccc2OC)=NC3)ccc1C(=O)O", "note": "[alisertib]", "values": [{"measurement": "decrease of H1155 viability on combining with FER and MEK1/2 inhibition", "setting": "H1155 cells", "result": "only in a minor decrease of viability"}]}
